Here are results for one compound from patent US7094754B2, “Anti-aging and wound healing compounds” (Kimberly-Clark Worldwide, Inc., priority 2001, dated 2006).

A word on the viability: it is a per cent measure of how many cells are alive, often set against a control.

The nature of series [1]: Viability assay (MTT) in EpiDerm skin model. Type of series: cell-based. Particulars: human, EpiDerm skin model (MatTek), relative to PBS control, average over 500 μM and 2 mM, read-out: total average viability. An excerpt: FIG. 16 provides a bar graph showing the percent living cells, relative to a positive control, in a skin model after treatment with two concentrations of peptide. The first sample, treated with phosphate buffered saline (PBS), is the positive control used to establish the cell count representing 100% viability. The second sample is a negative control where cells were exposed to 1% Triton-X100, showing that the assay can detect cell death. […] Data shown represent the average of three tests.
The sample containers were transferred to 6 well plates that contained fresh media. All peptides were dissolved in PBS at a final concentration of 10 mM, and 100 μL each peptide solution was pipetted onto the surface of the Epiderm sample container. Incubation was continued for 12 hours at 37° C., 5% CO2. After the incubation period, the sample containers were washed three times with PBS and the sample containers were transferred to a 24 well plate that contained 300 μL of MTT assay media per well (MTT concentration was 1 mg/mL). The colorimetric assay was allowed to develop for three hours (incubation at 37° C., 5% CO2). Sample containers were then transferred to a 24 well culture plate that contained 2 mL of isopropanol per well. Extraction of the colored precipitate occurred over a period of four hours at room temperature. Absorbance readings were taken at 570 nm and 650 nm for each sample. The percent viability of each sample relative to a PBS control was calculated as: 100×(OD570^sam−OD650^sam)/(OD570^con−OD650^con) (6) Routinely, the peptide sample was assayed in triplicate. Results The sequence of matrix metalloproteinase-2 (SEQ ID NO:14) is provided below to facilitate definition of the various domains and regions in matrix metalloproteinases.

Series [2] deals with wounds in C57BL6/KsJ db/db mice. Kind of series: Wound healing in db/db diabetic mice. The series is classed as in vivo. An excerpt:
Wounds were created in C57BL6/KsJ db/db mice with a 4 mm biopsy punch. The mice were obtained from The Jackson Laboratories and were aged 3-7 months before the onset of the wounding protocol. All mice were anesthetized prior to wounding. Two wounds were introduced onto the upper back of each animal by pulling the skin away from underlying structures and pushing the punch through the isolated skin. Typically, wounds were created to an average depth of 1.7 mm, with a range of 1.3 to 2.2 mm. No muscle involvement occurred during the course of wounding.
Each day the wounds were digitally photographed and wound areas were determined by computer integration of the photographs. All wound treatments and the subsequent data analyses were performed in a blind manner (see e.g., Brown et al., 1994). Wound area at the time of wounding (day 0) is arbitrarily set to a relative value of 1 for all wounds; such that subsequent wound areas are converted to relative wound areas by dividing the wound area at day n by the wound area at day zero.

Series [3] deals with normal human dermal fibroblasts (Clonetics, CC-2509). Description: Fibroblast proliferation assay. As to conditions: 28 hours. The series is classed as cell-based. The procedure: A human skin fibroblast cell line (Clonetics, Walkersville, Md., normal human dermal fibroblasts, neonatal, catalog number CC-2509) was tested to ascertain whether exposure to a peptide of the invention would stimulate cellular proliferation. The proliferative response of the human skin fibroblast cell line to thel 9mer peptide (SEQ ID NO:11) was measured in a 96-well assay system using serum-free medium as a control. […] Plates were incubated for 24 hours at 37° C. in a humidified 5% CO2 atmosphere. After incubation, the medium was aspirated and the wells were rinsed twice with 100 μl of serum-free DMEM. […] In addition, 100 μl of vehicle (serum-free DMEM) was added to 10 wells as control. All wells were incubated for 28 hours at 37° C. in a humidified, 5% CO2 atmosphere. After incubation, 20 μl of Cell Titer 96 Aqueous One Solution was added to all wells. The plates were swirled gently and placed back in the incubator for 45 minutes and spectrophotometric absorbance was read at 490 nm. Results were analyzed statistically using one-way ANOVA.

Series [4] has as its system normal human epidermal keratinocytes (Clonetics, CC-2503). Description: Keratinocyte proliferation assay. The series is classed as cell-based. As to conditions: 48 hours. The procedure:
The proliferative response of these human skin keratinocytes to the 19mer peptide (SEQ ID NO:11) was measured in a 96-well assay system using keratinocyte basal medium (KBM, Clonetics, catalog number CC-3103) as a control. […] The plates were incubated for 24 hours at 37° C. in a humidified 5% CO2 atmosphere. […] In addition, 100 μl of vehicle KBM was added to 10 wells as control. The plate was incubated for 48 hours at 37° C. in a humidified, 5% CO2 atmosphere. After incubation, 20 μl of Cell Titer 96 Aqueous One Solution was added to all wells. The plate was swirled gently and placed back in the incubator for 3 hours. The spectrophotometric absorbance of each well was read at 490 nm. Results were analyzed statistically using one-way ANOVA.

With `CC(C)[C@H](NC(=O)[C@H](CC(=O)O)NC(=O)[C@@H]1CCCN1C(=O)[C@H](CC(N)=O)NC(=O)CNC(=O)[C@H](CS)NC(=O)[C@H](CCCNC(=N)N)NC(=O)[C@@H]1CCCN1)C(=O)N[C@@H](C)C(=O)N[C@@H](CC(N)=O)C(=O)N[C@@H](Cc1ccc(O)cc1)C(=O)N[C@@H](CC(N)=O)C(=O)N[C@@H](Cc1ccccc1)C(=O)N[C@@H](Cc1ccccc1)C(=O)N1CCC[C@H]1C(=O)N[C@@H](CCCNC(=N)N)C(=O)N[C@@H](CCCCN)C(=O)N1CCC[C@H]1C(=O)N[C@@H](CCCCN)C(=O)O` [19-mer], the viability at 12 h in series [1] amounted to 97.6%. Moreover, the “time to full wound closure (average)” value in series [2] (single dose 5 μL of 20 μg/mL at time of wounding, saline control 14 days) was found to be 9 days post wounding. Also, in series [2] (single dose 5 μL of 20 μg/mL, saline control day 8), the “start of wound contraction process” value was found to be 5 days. Also, the “fibroblast growth (OD 490 nm) versus control” value is “even greater cell growth” in series [3] (1×10^−4 M), “significantly greater cell density” in series [3] (1×10^−5 M) and “a small amount of cell proliferation” in series [3] (1×10^−6 M). The “keratinocyte growth (OD 490 nm) versus control” value in series [4] (1×10^−4 M) is “even greater cell growth”; in series [4] (1×10^−5 M), “significantly greater cell density”; in series [4] (1×10^−6 M), “only a small amount of cell proliferation”.
